Measured values taken from patent US8383660B2, “Dibenzyl amine compounds and derivatives” (Pfizer Inc., priority 2006, dated 2013).
Structures can show the parent of a compound that is named as a salt.

melting point: 95 °C
Compound: CCOCC1(F)CCN([C@@H](c2ccc(C(F)(F)F)cc2CN(Cc2cc(C(F)(F)F)cc(C(F)(F)F)c2)c2nnn(C)n2)C(C)C)CC1 (as salt: mesylate) [Example 213, (N-[3,5-bis(trifluoromethyl)benzyl]-N-[2-{(1R)-1-[4-(ethoxymethyl)-4-fluoropiperidin-1-yl]-2-methylpropyl}-5-(trifluoromethyl)benzyl]-2-methyl-2H-tetrazol-5-amine)]
